According to patent US20250304537A1 (Repare Therapeutics Inc., priority 2022, published 2025):
Where two headings read alike, the source gives them in different places.

Key:
[1] = biological target: recombinant human Myt1 (full length PKMYT1) (Homo sapiens (Human), UniProt Q99640); assay: Recombinant human Myt1 kinase assay (ADP-Glo); type: biochemical; settings: 10 μM ATP
How it was run: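 Full-length insect-cell-expressed human Myt1 (18 nM final) was preincubated with compound (0.5% DMSO) for 15 min at 22 °C. The reaction ran with 10 μM ATP for 60 min at 30 °C in HEPES buffer with Mg2+/Mn2+ and DTT. ADP formed was read by ADP-Glo luminescence, giving IC50 and % max inhibition.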

[2] = system: PKMYT1 (CDK1 pThr14) in FUOV1 cells; assay: PKMYT1 cell-based activity assay, CDK1 pThr14 AlphaLISA in FUOV1 cells; settings: read-out: FUOV-1 CDK1 pThr14 IC50
How it was run: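 FUOV1 cells were treated with PKMYT1 inhibitor for 2 h at 37 °C, then lysed. CDK1 pThr14 was measured by AlphaLISA, pairing an anti-pThr14 antibody with an anti-total CDK1 antibody (5 nM each). Signal read at 680/615 nm and used to derive IC50.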

recombinant human Myt1 (full length PKMYT1), sequence (Q99640 whole entry): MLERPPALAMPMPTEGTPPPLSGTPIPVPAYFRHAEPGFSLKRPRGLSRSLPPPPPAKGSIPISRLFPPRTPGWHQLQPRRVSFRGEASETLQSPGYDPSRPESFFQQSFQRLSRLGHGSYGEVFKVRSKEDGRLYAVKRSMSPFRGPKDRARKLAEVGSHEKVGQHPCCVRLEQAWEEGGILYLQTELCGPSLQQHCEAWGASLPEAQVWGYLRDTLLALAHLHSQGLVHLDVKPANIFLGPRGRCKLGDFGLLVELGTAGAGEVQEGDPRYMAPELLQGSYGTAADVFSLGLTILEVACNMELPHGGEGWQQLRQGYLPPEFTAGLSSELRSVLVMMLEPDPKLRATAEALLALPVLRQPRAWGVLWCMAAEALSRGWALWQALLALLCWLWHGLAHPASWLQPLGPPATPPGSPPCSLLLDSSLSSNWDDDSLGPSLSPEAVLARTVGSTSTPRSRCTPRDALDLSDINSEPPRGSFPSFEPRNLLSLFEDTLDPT

Compound	IC50 [1] [nM]	IC50 ([2]; 2 h, 2 h incubation) [nM]	IC50 ([2]; 2 h incubation) [nM]	IC50 ([2]; 2 h, 2 h compound incubation) [nM]	IC50 ([2]; 2 h, 2 hours with compound) [nM]
COC(COc1nccc(-c2cc(-c3c(C)ccc4[nH]ncc34)c(N)c(C(N)=O)n2)n1)C1CC1 (centres unmarked) [Compound 391]	5	56			
Cc1ccc(O)c(C)c1-c1cc(-c2ccnc(N)c2)nc(C(N)=O)c1N [Compound 45]	2		60		
Cc1ccc(O)cc1-c1nc(-c2nccs2)nc(C(N)=O)c1N [Compound 3, 5-amino-6-(5-hydroxy-2-methylphenyl)-2-(thiazol-2-yl)pyrimidine-4-carboxamide]	21	560			
Cc1ccc2[nH]ncc2c1-c1nc(-c2ccccc2NCC(F)(F)F)cc(C(N)=O)c1N [Compound 413]	5			184	
Cc1ccc2[nH]ncc2c1-c1cc(-c2ccnc(OCc3ccncc3)n2)nc(C(N)=O)c1N [Compound 230]	4	208			
Cc1ccc2[nH]ncc2c1-c1nc(-c2cc(F)cc(F)c2NCC(F)F)nc(C(N)=O)c1N [Compound 436]	7			206	
Cc1ccc2[nH]ncc2c1-c1cc(-c2cccc(OCc3ccccn3)n2)nc(C(N)=O)c1N [Compound 228]	6	387			
Cc1ccc2[nH]ncc2c1-c1nc(-c2ccccc2-c2ncc[nH]2)nc(C(N)=O)c1N [Compound 808]	14				> 10000
Cc1ccc2[nH]ncc2c1-c1cc(-c2ccnc(OCCn3ccnc3)n2)nc(C(N)=O)c1N [Compound 315]	9	349			
Cc1nccc(Nc2cc(F)ccc2-c2nc(C(N)=O)c(N)c(-c3c(C)ccc4[nH]ncc34)n2)n1 [Compound 525]	5			19	
Cc1ccc2[nH]ncc2c1-c1cc(-c2ccnc(OCc3cccnc3)n2)nc(C(N)=O)c1N [Compound 164]	14	473			
Cc1ccc2[nH]ncc2c1-c1cc(-c2cccc(OC3(c4ncccn4)COC3)n2)nc(C(N)=O)c1N [Compound 256]	21	132			
Cc1ccc2[nH]ncc2c1-c1cc(-c2cccc(OCc3cnccn3)n2)nc(C(N)=O)c1N [Compound 250]	8	752			
Cc1ccc(O)cc1-c1nc(-c2ccc(N3CCN(CCO)CC3)cc2)nc(C(N)=O)c1N [Compound 6]	24	1010			
Cc1ccc2[nH]ncc2c1-c1nc(-c2cc(F)cc3c2NC(=O)C3)nc(C(N)=O)c1N [Compound 393]	6	288			
Cc1ccc2[nH]ncc2c1-c1cc(-c2ccnc(Oc3cccnc3)n2)nc(C(N)=O)c1N [Compound 199]	6	137			
Cc1ccc2[nH]ncc2c1-c1cc(-c2cccc(OC3CCCOC3)n2)nc(C(N)=O)c1N (centres unmarked) [Compound 306]	7	449			
Cc1ccc2[nH]ncc2c1-c1nc(-c2cccc3c2NC(=O)C3(F)F)nc(C(N)=O)c1N [Compound 395]	17			780	
NC(=O)c1nc(-c2cc(F)c(F)cc2NCC(F)F)nc(-c2c(Cl)ccc3[nH]ncc23)c1N [Compound 468]	6			228	
Cc1ccc2[nH]ncc2c1-c1cc(-c2ccnc(OC[C@H](N)c3ccccc3)n2)nc(C(N)=O)c1N [Compound 342]	3	6			
Cc1ccc2[nH]ncc2c1-c1cc(-c2ccncn2)nc(C(N)=O)c1N [Compound 105]	12	551			
Cc1cccc(-c2cc(-c3c(C)ccc(O)c3C)c(N)c(C(N)=O)n2)n1 [Compound 83]	6	188			
Cc1ccc2[nH]ncc2c1-c1nc(-c2ccccc2NCC(F)(F)F)nc(C(N)=O)c1N [Compound 409]	5			28	
CC(=O)Nc1cccc(-c2cc(-c3c(C)ccc(O)c3C)c(N)c(C(N)=O)n2)c1 [Compound 49]	6	137			
Cc1ccc2[nH]ncc2c1-c1nc(-c2cnccc2NC(=O)OC(C)(C)C)nc(C(N)=O)c1N [Compound 465]	5			233	
Cc1ccc2[nH]ncc2c1-c1cc(-c2ccnc(OCCOC3CC3)n2)nc(C(N)=O)c1N [Compound 205]	6	181			
Cc1ccc2[nH]ncc2c1-c1nc(-c2cc(F)c(F)cc2NC(=O)C2(C)CCN(C)C2)nc(C(N)=O)c1N (centres unmarked) [Compound 484]	7			23	
Cc1ccc2[nH]ncc2c1-c1nc(-c2cc(F)c(F)cc2NC(=O)C2(C(F)(F)F)CC2)nc(C(N)=O)c1N [Compound 471]	16			261	

Compound	IC50 [1] [nM]	IC50 ([2]; 2 h, 2 h incubation) [nM]	IC50 ([2]; 2 h incubation) [nM]	IC50 ([2]; 2 h, 2 h compound incubation) [nM]	IC50 ([2]; 2 h, 2 hours with compound) [nM]
Cc1nnc(-c2cccc(-c3nc(C(N)=O)c(N)c(-c4c(C)ccc5[nH]ncc45)n3)c2)o1 [Compound 290]	6	167			
COC1(C(=O)Nc2ccccc2-c2nc(C(N)=O)c(N)c(-c3c(C)ccc4[nH]ncc34)n2)CC1 [Compound 432]	5			105	
Cc1ccc(O)c(C)c1-c1cc(-c2cnccn2)cc(C(N)=O)c1N [Compound 84]	10	357			
Cc1ccc2[nH]ncc2c1-c1nc(-c2ccccc2NC(=O)C2(C3CC3)CC2)nc(C(N)=O)c1N [Compound 478]	6			80	
Cc1ccc(O)c(C)c1-c1cc(-c2ccnnc2)nc(C(N)=O)c1N [Compound 63]	5		40		
Cc1ccc2[nH]ncc2c1-c1nc(-c2ccccc2NS(C)(=O)=O)nc(C(N)=O)c1N [Compound 427, 5-amino-6-(5-methyl-1H-indazol-4-yl)-2-(2-(methylsulfonamido)phenyl)pyrimidine-4-carboxamide]	4			23	
Cc1ccc(O)c(C)c1-c1cc(-c2ccnnc2)cc(C(N)=O)c1N [Compound 93]	25	937			
Cc1ccc2[nH]ncc2c1-c1cc(-c2ccnc(O[C@H]3CO[C@H]4OCC[C@H]43)n2)nc(C(N)=O)c1N [Compound 208]	6	106			
Cc1ccc2[nH]ncc2c1-c1cc(C(N)=O)nc(-c2cccnc2Nc2nc(F)ccc2F)n1 [Compound 499, 2-(2-((3,6-difluoropyridin-2-yl)amino)pyridin-3-yl)-6-(5-methyl-1H-indazol-4-yl)pyrimidine-4-carboxamide]	4			209	
COCCNc1ccccc1-c1nc(C(N)=O)c(N)c(-c2c(C)ccc3[nH]ncc23)n1 [Compound 464]	3			370	
Cc1ccc2[nH]ncc2c1-c1nc(-c2ccccc2NS(=O)(=O)C2CC2)nc(C(N)=O)c1N [Compound 426]	4			38	
Cc1ccc2[nH]ncc2c1-c1cc(-c2ccnc(OCCc3nccs3)n2)nc(C(N)=O)c1N [Compound 313]	6	137			
Cc1ccc(O)c(C)c1-c1cc(-c2ccc(C(F)(F)F)cc2)nc(C(N)=O)c1N [Compound 15]	20	2520			
Cc1ccc2[nH]ncc2c1-c1cc(-c2cccc(O[C@H]3CCOC3)n2)nc(C(N)=O)c1N (atropisomer, axis not shown) [Compound 226]	4	367			
COc1cccc(-c2cc(-c3c(C)ccc(O)c3C)c(N)c(C(N)=O)n2)n1 [Compound 66]	2		168		
Cc1ccc2[nH]ncc2c1-c1nc(-c2ccccc2C(O)c2ccccn2)nc(C(N)=O)c1N (centres unmarked) [Compound 788]	44			1270	
Cc1ccc2[nH]ncc2c1-c1nc(-c2cc(Cl)ncc2NC2CCOCC2)nc(C(N)=O)c1N [Compound 839]	4				22
Cc1ccc2[nH]ncc2c1-c1cc(-c2ccnc(OC3CCOCC3)n2)nc(C(N)=O)c1N [Compound 169]	8	120			
Cc1ccc2[nH]ncc2c1-c1nc(-c2ccccc2NC(C)C(F)(F)F)cc(C(N)=O)c1N (centres unmarked) [Compound 406]	5			53	
Cc1ccc(O)c(C)c1-c1nc(-c2ccccc2NC(=O)C2(C)CC2)cc(C(N)=O)c1N [Compound 428]	3			26	
Cc1ccc(O)c(C)c1-c1cc(-c2cccc(C(F)(F)F)n2)nc(C(N)=O)c1N [Compound 60]	11	1820			
Cc1ccc2[nH]ncc2c1-c1cc(-c2cccc(O[C@H](C)c3ncccn3)n2)nc(C(N)=O)c1N [Compound 254]	5	204			
Cc1ccc2[nH]ncc2c1-c1cc(-c2ccnc(Sc3ccccc3)n2)nc(C(N)=O)c1N [Compound 177, 3-amino-4-(5-methyl-1H-indazol-4-yl)-6-(2-(phenylthio)pyrimidin-4-yl)picolinamide]	13	346			
Cc1ccc2[nH]ncc2c1-c1nc(-c2cc(F)c(F)cc2NC2CCOCC2)nc(C(N)=O)c1N [Compound 466, 5-amino-2-(4,5-difluoro-2-((tetrahydro-2H-pyran-4-yl)amino)phenyl)-6-(5-methyl-1H-indazol-4-yl)pyrimidine-4-carboxamide]	6			77	
Cc1ccc2[nH]ncc2c1-c1nc(-c2ccc3c(c2)OCO3)nc(C(N)=O)c1N [Compound 297]	9	422			
Cc1ccc2[nH]ncc2c1-c1nc(-c2cccnc2Nc2ncccc2F)nc(C(N)=O)c1N [Compound 621]	3			3	
Cc1ccc(O)c(C)c1-c1cc(-c2ccnc(N)c2)nc(C(N)=O)c1N [Compound 14]	4		132		
